Data set [1] concerns B16 cells. In words: In vitro antiproliferative assay (CCK-8). The data set is classed as cell-based. The note with it: Mus musculus; B16, without BRCA mutations; CCK-8, 72 h; mean of three. As to the method:
(§1) The proliferation of cancer cells was tested by CCK-8 assay. Briefly, cells were seeded in 96-well plates at approximately 5 × 10^3 cells per well. The cells were treated with test compounds after 24 h of incubation. CCK-8 reagent ([…]) was added to each well after 72 h of incubation, and the cells were then incubated at 37°C for 4 h. The light absorbance at 450 nm was measured using an Opsys microplate reader (Dynex Technologies, Chantilly, VA, United States). Results are illustrated as percentage viability normalized to DMSO-treated control cells.

The subject of data set [2] is SW620 cells. In words: In vitro antiproliferative assay (CCK-8). It is filed as cell-based. The conditions noted are these: Homo sapiens, SW-620; SW620, without BRCA mutations; CCK-8, 72 h; mean of three. As to the method:
as §1

The subject of data set [3] is Capan-1 cells. The experiment in a line: In vitro antiproliferative assay (CCK-8). The data set is classed as cell-based. The conditions noted are these: Homo sapiens; Capan-1, BRCA-mutated; CCK-8, 72 h; mean of three. As to the method: as §1
In data set [4] the test system is A549 cells. The experiment in a line: In vitro antiproliferative assay (CCK-8). The data set is classed as cell-based. The note with it: Homo sapiens; A549, without BRCA mutations; CCK-8, 72 h; mean of three. Here is the method:
as §1

The test system of data set [5] is Raji cells. In words: In vitro antiproliferative assay (CCK-8). It is filed as cell-based. The conditions noted are these: Homo sapiens, without BRCA mutations, CCK-8, 72 h, mean of three. As to the method:
as §1

In data set [6] the test system is MDA-MB-231 cells. In words: In vitro antiproliferative assay (CCK-8). It is filed as cell-based. The note with it: Homo sapiens; MDA-MB-231, without BRCA mutations; CCK-8, 72 h; mean of three. As to the method:
as §1

The subject of data set [7] is 8226 cells. The experiment in a line: In vitro antiproliferative assay (CCK-8). It is filed as cell-based. The conditions noted are these: 8226, without BRCA mutations; CCK-8, 72 h; mean of three. Here is the method:
as §1

Data set [8] relates to MCF-7 cells. The experiment in a line: In vitro antiproliferative assay (CCK-8). It is filed as cell-based. The note with it: Homo sapiens, MCF7; MCF-7, without BRCA mutations; CCK-8, 72 h; mean of three. Here is the method: as §1
In data set [9] the test system is K562 cells. The experiment in a line: In vitro antiproliferative assay (CCK-8). It is filed as cell-based. The conditions noted are these: Homo sapiens; K562, without BRCA mutations; CCK-8, 72 h; mean of three. Here is the method:
as §1

In data set [10] the test system is Hela cells. In words: In vitro antiproliferative assay (CCK-8). The data set is classed as cell-based. The note with it: Homo sapiens, without BRCA mutations, CCK-8, 72 h, mean of three. Here is the method:
as §1

Data set [11] relates to U87 cells. The experiment in a line: In vitro antiproliferative assay (CCK-8). The conditions noted are these: Homo sapiens, U-87 MG; U87, without BRCA mutations; CCK-8, 72 h; mean of three. It is filed as cell-based. Here is the method: as §1
Data set [12] has as its system CH151 cells. The experiment in a line: In vitro antiproliferative assay (CCK-8). It is filed as cell-based. The note with it: CH151, without BRCA mutations; CCK-8, 72 h; mean of three. As to the method:
as §1

Data set [13] has as its system SKOV3 cells. The experiment in a line: In vitro antiproliferative assay (CCK-8). The data set is classed as cell-based. The conditions noted are these: Homo sapiens, SK-OV-3; SKOV3, without BRCA mutations; CCK-8, 72 h; mean of three. As to the method:
as §1

Data set [14] has as its system MDA-MB-436 cells. The experiment in a line: In vitro antiproliferative assay (CCK-8). The data set is classed as cell-based. The conditions noted are these: Homo sapiens; MDA-MB-436, BRCA-mutated; CCK-8, 72 h; mean of three. As to the method: as §1
The subject of data set [15] is HCC1937 cells. The experiment in a line: In vitro antiproliferative assay (CCK-8). It is filed as cell-based. The conditions noted are these: Homo sapiens; HCC1937, BRCA-mutated; CCK-8, 72 h; mean of three. Here is the method: as §1
The subject of data set [16] is U251 cells. The experiment in a line: In vitro antiproliferative assay (CCK-8). It is filed as cell-based. The note with it: Homo sapiens, U-251; U251, without BRCA mutations; CCK-8, 72 h; mean of three. Here is the method: as §1
Data set [17] deals with PARP1 (Homo sapiens, UniProt P09874). The experiment in a line: PARP1 enzyme inhibitory assay. The data set is classed as biochemical. The conditions noted are these: Table 2, B and C series; mean of three experiments.
Data set [18] has as its system K562 cells. The experiment in a line: Cell cycle analysis (PI staining, flow cytometry). It is filed as cell-based. The conditions noted are these: for effect on cell cycle (in words): K562, 24 h, C2 1.25–5.0 µM, olaparib and chlorambucil 2.5–10 µM. Here is the method: K562 and HCC1937 cells were incubated with different doses of molecule C2, olaparib, or chlorambucil for 24 h. After treatment, cells were collected and fixed with 70% pre-chilled ethanol in PBS and stored at −20°C overnight. The cells were then washed twice with PBS, incubated with 100 μg/ml RNase I (Solarbio, China) at 37°C for 1 h, and stained with propidium iodide (PI, 10 μg/ml, Solarbio, China) for 30 min, in the dark, at room temperature. Finally, the DNA content was measured using flow cytometry (FACSAria III, Becton Dickinson, United States). The data were analyzed and fitted using ModFit software.
For orientation: Flow cytometry measures light scatter and fluorescence of single cells or particles in a stream.

Data set [19] has as its system K562 cells. The experiment in a line: Cell apoptosis analysis (Annexin V-BV421/7-AAD, flow cytometry). The data set is classed as cell-based. The note with it: 24 h, control .90%. Here is the method:
K562 cells were treated with various concentrations of molecule C2, olaparib, or chlorambucil for 24 h. Cells were then harvested and washed twice with PBS and then resuspended with binding buffer (Becton Dickinson, United States). Cells were incubated with Annexin V-BV421 (Becton Dickinson, United States) and 7-AAD (Becton Dickinson, United States) for double labeling for 30 min, in the dark, at room temperature, followed by analysis using flow cytometry (FACSAria III, Becton Dickinson, United States). The data were analyzed using FlowJo v10 software.

Details of data set [20]: method as in Gala et al., 2020. The note with it: in both aqueous and lipophilic solutions; ref Gala et al., 2020; cited from earlier work.
On the set-up of data set [21]: method as in Jackson and Chester, 2015. The note with it: ref Jackson and Chester, 2015; cited from earlier work.

The source of these data is publication PMC9868654, “Discovery of a potent olaparib–chlorambucil hybrid inhibitor of PARP1 for the treatment of cancer” (Frontiers in Pharmacology, 2023).

What is called IC50 is the point on the concentration scale where inhibition reaches its midpoint.

PARP1, sequence (P09874 whole entry): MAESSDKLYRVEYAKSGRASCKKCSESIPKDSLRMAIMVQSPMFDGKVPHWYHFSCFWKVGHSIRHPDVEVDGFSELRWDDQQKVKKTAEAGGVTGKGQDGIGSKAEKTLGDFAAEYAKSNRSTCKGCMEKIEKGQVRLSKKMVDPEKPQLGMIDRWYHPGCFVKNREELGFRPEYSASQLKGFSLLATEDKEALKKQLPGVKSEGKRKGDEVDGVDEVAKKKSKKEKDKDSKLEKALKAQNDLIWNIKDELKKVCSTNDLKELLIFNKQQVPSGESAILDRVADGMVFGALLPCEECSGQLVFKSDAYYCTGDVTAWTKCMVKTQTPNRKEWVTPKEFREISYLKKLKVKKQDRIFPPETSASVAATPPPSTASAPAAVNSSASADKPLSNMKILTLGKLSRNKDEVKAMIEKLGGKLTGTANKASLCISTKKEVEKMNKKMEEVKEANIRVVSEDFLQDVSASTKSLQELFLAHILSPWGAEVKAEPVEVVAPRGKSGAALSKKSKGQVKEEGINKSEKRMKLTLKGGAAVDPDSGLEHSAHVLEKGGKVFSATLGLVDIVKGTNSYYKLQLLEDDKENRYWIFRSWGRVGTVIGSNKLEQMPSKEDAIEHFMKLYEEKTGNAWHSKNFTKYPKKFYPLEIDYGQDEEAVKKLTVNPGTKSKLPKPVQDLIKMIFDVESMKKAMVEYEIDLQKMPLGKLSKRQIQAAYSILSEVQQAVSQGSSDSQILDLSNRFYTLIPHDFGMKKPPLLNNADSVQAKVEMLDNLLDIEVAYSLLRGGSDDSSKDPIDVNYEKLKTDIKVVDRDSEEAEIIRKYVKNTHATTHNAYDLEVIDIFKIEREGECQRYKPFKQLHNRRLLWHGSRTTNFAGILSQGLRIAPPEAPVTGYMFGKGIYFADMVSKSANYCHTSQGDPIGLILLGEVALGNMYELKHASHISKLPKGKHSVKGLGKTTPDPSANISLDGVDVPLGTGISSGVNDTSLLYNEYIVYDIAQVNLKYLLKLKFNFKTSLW

For the compound `CCCCNNC(=O)c1cc(Cc2n[nH]c(=O)c3ccccc23)ccc1F` [B3, N′-butyl-2-fluoro-5-((4-oxo-3,4-dihydrophthalazin-1-yl)methyl)benzohydrazide], the IC50 in data set [1] is over 100 µM; in data set [2] it was over 100 µM; in data set [3], over 1 µM; in data set [4] it was over 100 µM; in data set [5] it was over 100 µM; in data set [6] it was over 100 µM. The IC50 is over 100 µM in data set [7]; over 100 µM in data set [8]; over 20 µM in data set [9]; over 100 µM in data set [10]; over 100 µM in [11]; over 100 µM in [12]. Moreover, the IC50 in data set [13] was over 100 µM; in data set [14] it was over 1 µM; in [15], over 1 µM; in data set [16], over 100 µM; in [17], 0.0028 ± 0.0001 µM.
Consider `O=C(c1ccc(N(CCCl)CCCl)cc1)N1CCN(C(=O)c2cc(Cc3n[nH]c(=O)c4ccccc34)ccc2F)CC1` [C1, 4-(3-(4-(4-(Bis(2-chloroethyl)amino)benzoyl)piperazine-1-carbonyl)-4-fluorobenzyl) phthalazin-1(2H)-one], for which the IC50 in data set [1] is over 100 µM; in data set [2] it was over 100 µM; in data set [3] it was 0.105 ± 0.01 µM; in data set [4], 14.1 ± 1.1 µM; in data set [5] it was over 100 µM; in data set [6] it was over 100 µM. Moreover, the IC50 in data set [7] is over 100 µM; in data set [8] it was over 100 µM; in [9], over 20 µM; in [10] it was over 100 µM; in data set [11] it was over 100 µM; in data set [12], over 100 µM. The IC50 in data set [13] is over 100 µM; in [14], 0.018 ± 0.002 µM; in data set [15], 0.36 ± 0.02 µM; in [16], over 100 µM; in [17], 0.0012 ± 0.00011 µM.
With `O=C(CCCc1ccc(N(CCCl)CCCl)cc1)N1CCN(C(=O)c2cc(Cc3n[nH]c(=O)c4ccccc34)ccc2F)CC1` [C2, 4-(3-(4-(4-(4-(Bis(2-chloroethyl)amino)phenyl)butanoyl)piperazine-1-carbonyl)-4-fluorobenzyl)phthalazin-1(2H)-one], the IC50 in data set [1] is 11.7 ± 1.01 µM; in data set [2], 6.41 ± 0.46 µM; in data set [3], 0.086 ± 0.006 µM; in [4] it was 2.01 ± 0.13 µM; in data set [5], 1.21 ± 0.02 µM; in data set [6], 6.33 ± 0.35 µM. For the same compound, the IC50 was 3.62 ± 0.2 µM in data set [7]; 2.28 ± 0.11 µM in [8]; 1.12 ± 0.08 µM in data set [9]; 1.65 ± 0.11 µM in data set [10]; 2.86 ± 0.01 µM in [11]; 2.77 ± 0.13 µM in data set [12]. Further, the IC50 in data set [13] turned out to be 4.04 ± 0.25 µM; in [14], 0.013 ± 0.001 µM; in data set [15], 0.18 ± 0.01 µM; in data set [16], 2.58 ± 0.14 µM; in data set [17], 0.0009 ± 8e-05 µM. Further, the “effect on cell cycle (in words)” value in data set [18] was “increased cell number at the G2/M phase in a dose-dependent manner”. In addition, the “percentage of apoptotic cells (apoptotic rate)” value (shortened to “percentage of apoptotic cells”) in data set [19] (K562, 1 μM) is 10.96%; in data set [19] (K562, 2 µM), 12.69%.
On to `O=C(O)CCCc1ccc(N(CCCl)CCCl)cc1` [Chlorambucil], for which the half-maximal inhibitory concentration (IC50) in [1] is over 100 µM; in data set [2] it was 10 ± 1.01 µM; in [3], over 1 µM; in data set [4], 89.4 ± 3.4 µM; in data set [5] it was 40.6 ± 3.6 µM; in data set [6] it was 95.3 ± 5.7 µM. The IC50 in data set [7] is over 100 µM; in data set [8] it was 19.5 ± 1.7 µM; in [9], over 20 µM; in [10], over 100 µM; in data set [11], over 100 µM; in data set [12], over 100 µM. The half-inhibitory concentration (IC50) in data set [13] was 3.98 ± 0.22 µM; in data set [14] it was over 1 µM; in data set [15] it was over 1 µM; in data set [16], 21.1 ± 1.8 µM. Further, in data set [18] (K562, 10 µM, 24 h), the “proportion of cells in the G2/M phase” value was determined as 61.60%. Also, the “effect on cell cycle (in words)” value in data set [18] is given as “increased cell number at the G2/M phase in a dose-dependent manner”. Moreover, the “percentage of apoptotic cells” value worked out at 2.49% in data set [19] (K562, 5 μM) and 2.96% in data set [19] (K562, 10 µM).
`O=C(c1cc(Cc2n[nH]c(=O)c3ccccc23)ccc1F)N1CCN(C(=O)C2CC2)CC1` [Olaparib]: the IC50 in data set [1] is over 100 µM; in data set [2], 17.7 ± 1.2 µM; in data set [3], 0.129 ± 0.011 µM; in data set [4], 1.62 ± 0.11 µM; in data set [5], 4.4 ± 0.33 µM; in data set [6] it was 53.8 ± 3.6 µM. Moreover, the IC50 was determined as 66.8 ± 5.5 µM in data set [7]; 30.6 ± 2.1 µM in [8]; 10.4 ± 0.72 µM in data set [9]; 11.6 ± 1.01 µM in data set [10]; 26 ± 1.2 µM in [11]; 24.9 ± 1.5 µM in [12]. Further, the IC50 was 12.8 ± 1.2 µM in [13], 0.047 ± 0.003 µM in data set [14], 0.24 ± 0.01 µM in [15] and over 100 µM in data set [16]. For the same compound, the solubility result in data set [20] is “low solubility”. Besides, the “pharmacokinetics profiles and bioavailability” value in [21] is given as “relatively poor”. Further, the “effect on cell cycle (in words)” value in data set [18] is “did not exhibit any effects”. In addition, the “percentage of apoptotic cells” value in data set [19] (K562, 5 μM) is given as 1.53%; in data set [19] (K562, 10 µM), 1.91%.
